Laboratory results from ChEMBL document CHEMBL1201861, “Genomics of Drug Sensitity in Cancer screening data, Wellcome Trust Sanger Institute”.
Where “and” joins values, the source holds several entries; their conditions need not be identical. Equal entries are not always repeated. Where a SMILES comes first, the peptide text is derived from it. The star is where a group is joined. Cbz = O=C(OCc1ccccc1)*

What was measured:
Assay in all cases: cells
ML-2 = assay type: functional, cell-based, Homo sapiens;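 note: growth inhibition of ML-2 cells, measured with a cell viability readout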
Description: SANGER: Inhibition of human ML-2 cell growth in a cell viability assay.

SK-N-FI = assay type: functional, cell-based, Homo sapiens;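 note: cell viability assay measuring growth inhibition of human SK-N-FI cells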
Description: SANGER: Inhibition of human SK-N-FI cell growth in a cell viability assay.

ES4 = assay type: functional, cell-based, Homo sapiens;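 note: growth inhibition of human ES4 cells, read out by a cell viability assay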
MSTO-211H = assay type: functional, cell-based, Homo sapiens
Description: SANGER: Inhibition of human MSTO-211H cell growth in a cell viability assay.

U-87 MG = assay type: functional, cell-based, Homo sapiens, U-87MG ATCC;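 note: growth inhibition of the cells measured with a viability assay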
Description: SANGER: Inhibition of human U-87-MG cell growth in a cell viability assay.

SNU1 = assay type: functional, cell-based, Homo sapiens;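 note: growth inhibition of human NCI-SNU-1 cells, measured with a cell viability assay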
Description: SANGER: Inhibition of human NCI-SNU-1 cell growth in a cell viability assay.

NCI-H1395 = assay type: functional, cell-based, Homo sapiens;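 note: cell viability assay read-out quantifying reduced proliferation of human NCI-H1395 cells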
Description: SANGER: Inhibition of human NCI-H1395 cell growth in a cell viability assay.

LB771-HNC = assay type: functional, cell-based; settings: Homo sapiens;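 note: growth inhibition of LB771-HNC human cells, read out with a cell viability assay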
ONS-76 = assay type: functional, cell-based, Homo sapiens;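 note: growth inhibition of human ONS-76 cells, read out with a cell viability assay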
Description: SANGER: Inhibition of human ONS-76 cell growth in a cell viability assay.

LAMA-84 = assay type: functional, cell-based, Homo sapiens;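 note: growth inhibition of LAMA-84 cells, read out with a cell viability assay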
NCI-H747 = assay type: functional, cell-based, Homo sapiens;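 note: growth inhibition of human NCI-H747 cells, read out by a cell viability assay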
Description: SANGER: Inhibition of human NCI-H747 cell growth in a cell viability assay.

LS-513 = assay type: functional, cell-based, Homo sapiens
Description: SANGER: Inhibition of human LS-513 cell growth in a cell viability assay.

HCC2157 = assay type: functional, cell-based, Homo sapiens;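 note: growth inhibition of the cancer cell line, read out as cell viability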
Description: SANGER: Inhibition of human HCC2157 cell growth in a cell viability assay.

IST-MEL1 = assay type: functional, cell-based, Homo sapiens;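 note: growth inhibition of the cell line, read out with a cell viability assay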
NCI-H209 = assay type: functional, cell-based, Homo sapiens;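 note: growth inhibition of human NCI-H209 cells, measured by a cell viability assay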
Description: SANGER: Inhibition of human NCI-H209 cell growth in a cell viability assay.

AM-38 = assay type: functional, cell-based, Homo sapiens;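 note: growth inhibition of AM-38 cells of human origin, read out by a cell viability assay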
Description: SANGER: Inhibition of human AM-38 cell growth in a cell viability assay.

LB996-RCC = assay type: functional, cell-based, Homo sapiens
Description: SANGER: Inhibition of human LB996-RCC cell growth in a cell viability assay.

RPMI-8866 = assay type: functional, cell-based, Homo sapiens
BB30-HNC = assay type: functional, cell-based, Homo sapiens;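 note: growth inhibition of the cultured cell line, read out by a cell viability assay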
Description: SANGER: Inhibition of human BB30-HNC cell growth in a cell viability assay.

A101D = assay type: functional, cell-based, Homo sapiens;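 note: growth inhibition of the cell line, measured with a viability assay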
Description: SANGER: Inhibition of human A101D cell growth in a cell viability assay.

JVM-3 = assay type: functional, cell-based, Homo sapiens;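 note: growth inhibition of human JVM-3 cells, read out with a cell viability assay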
Description: SANGER: Inhibition of human JVM-3 cell growth in a cell viability assay.

ES1 = assay type: functional, cell-based, Homo sapiens;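 note: growth inhibition of ES1 cells, read out with a cell viability assay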
KARPAS-299 = assay type: functional, cell-based, Homo sapiens
Description: SANGER: Inhibition of human KARPAS-299 cell growth in a cell viability assay.

LNCaP-Clone-FGC = assay type: functional, cell-based, Homo sapiens
Description: SANGER: Inhibition of human LNCaP-Clone-FGC cell growth in a cell viability assay.

KP-N-YS = assay type: functional, cell-based, Homo sapiens;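 note: cell viability assay measuring inhibition of cell line growth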
Description: SANGER: Inhibition of human KP-N-YS cell growth in a cell viability assay.

KE-37 = assay type: functional, cell-based, Homo sapiens;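 note: growth inhibition of KE-37 cells, read out with a cell viability assay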
Description: SANGER: Inhibition of human KE-37 cell growth in a cell viability assay.

NOMO-1 = assay type: functional, cell-based, Homo sapiens;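 note: growth inhibition of human NOMO-1 cells measured by a cell viability assay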
Description: SANGER: Inhibition of human NOMO-1 cell growth in a cell viability assay.

KNS-81-FD = assay type: functional, cell-based, Homo sapiens;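 note: growth inhibition of KNS-81-FD cells, read out with a cell viability assay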
Description: SANGER: Inhibition of human KNS-81-FD cell growth in a cell viability assay.

EW-16 = assay type: functional, cell-based, Homo sapiens;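 note: growth inhibition of human EW-16 cells, read out as cell viability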
Description: SANGER: Inhibition of human EW-16 cell growth in a cell viability assay.

CCRF-CEM = assay type: functional, cell-based, Homo sapiens;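 note: inhibition of CCRF-CEM cell growth, measured by a cell viability assay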
Description: SANGER: Inhibition of human CCRF-CEM cell growth in a cell viability assay.

KALS-1 = assay type: functional, cell-based, Homo sapiens;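 note: growth inhibition of KALS-1 cells, determined with a cell viability assay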
Description: SANGER: Inhibition of human KALS-1 cell growth in a cell viability assay.

MZ1-PC = assay type: functional, cell-based, Homo sapiens;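 note: cell viability assay measuring growth inhibition of human MZ1-PC cells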
LU-134-A = assay type: functional, cell-based, Homo sapiens
Description: SANGER: Inhibition of human LU-134-A cell growth in a cell viability assay.

LB831-BLC = assay type: functional, cell-based, Homo sapiens;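 note: growth inhibition of LB831-BLC cells, read out with a cell viability assay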
Description: SANGER: Inhibition of human LB831-BLC cell growth in a cell viability assay.

RKO = assay type: functional, cell-based, Homo sapiens;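 note: growth inhibition of human RKO cells, read out with a cell viability assay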
MOLT-16 = assay type: functional, cell-based, Homo sapiens;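 note: growth inhibition of human MOLT-16 cells, read out with a cell viability assay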
Description: SANGER: Inhibition of human MOLT-16 cell growth in a cell viability assay.

CAS-1 = assay type: functional, cell-based, Homo sapiens;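 note: growth inhibition of CAS-1 cells, measured with a cell viability assay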
LC-2-ad = assay type: functional, cell-based, Homo sapiens;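 note: growth inhibition of human LC-2-ad cells, read out with a cell viability assay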
Description: SANGER: Inhibition of human LC-2-ad cell growth in a cell viability assay.

LAN-6 = assay type: functional, cell-based, Homo sapiens;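 note: growth inhibition of LAN-6 cells, determined with a cell viability assay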
Description: SANGER: Inhibition of human LAN-6 cell growth in a cell viability assay.

ACN = assay type: functional, cell-based, Homo sapiens;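 note: growth inhibition of the human ACN cell line, read out via cell viability testing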
Description: SANGER: Inhibition of human ACN cell growth in a cell viability assay.

EW-13 = assay type: functional, cell-based, Homo sapiens;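 note: growth inhibition of EW-13 cells, read out with a cell viability assay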
Description: SANGER: Inhibition of human EW-13 cell growth in a cell viability assay.

C8166 = assay type: functional, cell-based, Homo sapiens;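 note: growth inhibition of human C8166 cells measured by a cell viability assay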
Description: SANGER: Inhibition of human C8166 cell growth in a cell viability assay.

RH-1 = assay type: functional, cell-based, Homo sapiens;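 note: growth inhibition of human RH-1 cells, read out with a cell viability assay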
SHP77 = assay type: functional, cell-based, Homo sapiens, SHP-77;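 note: growth inhibition of human SHP-77 cells measured by a cell viability assay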
HOP-62 = assay type: functional, cell-based, Homo sapiens;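 note: cell growth inhibition determined with a viability assay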
Becker = assay type: functional, cell-based, Homo sapiens;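 note: growth inhibition of Becker cells, read out with a cell viability assay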
Description: SANGER: Inhibition of human Becker cell growth in a cell viability assay.

TE-5 = assay type: functional, cell-based, Homo sapiens;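 note: inhibition of cell growth, read out by a cell viability assay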
Description: SANGER: Inhibition of human TE-5 cell growth in a cell viability assay.

SCH = assay type: functional, cell-based, Homo sapiens; settings: sch;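 note: growth inhibition of human SCH cells, read out in a cell viability assay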
Description: SANGER: Inhibition of human SCH cell growth in a cell viability assay.

[1] = Homo sapiens, KALS-1, read-out: IC50
[2] = Homo sapiens, EW-13, read-out: IC50

Measured: IC50

C[C@@H](Oc1cc(-c2cnn(C3CCNCC3)c2)cnc1N)c1c(Cl)ccc(F)c1Cl [CRIZOTINIB]
> 2 µM: ML-2; Homo sapiens, ML-2 | SK-N-FI; Homo sapiens, SK-N-FI | ES4; Homo sapiens, ES4 | MSTO-211H; Homo sapiens, MSTO-211H | U-87 MG; Homo sapiens, U-87 MG | SNU1; Homo sapiens, SNU1 | NCI-H1395; Homo sapiens, NCI-H1395 | LB771-HNC | ONS-76; Homo sapiens, ONS-76 | NCI-H747; Homo sapiens, NCI-H747 | LS-513; Homo sapiens, LS-513 | HCC2157; Homo sapiens, HCC2157 | IST-MEL1; Homo sapiens, IST-MEL1 | NCI-H209; Homo sapiens, NCI-H209 | AM-38; Homo sapiens, AM-38 | LB996-RCC; Homo sapiens, LB996-RCC | RPMI-8866; Homo sapiens, RPMI-8866 | BB30-HNC; Homo sapiens, BB30-HNC | A101D; Homo sapiens, A101D | JVM-3; Homo sapiens, JVM-3 | ES1; Homo sapiens, ES1 | LNCaP-Clone-FGC; Homo sapiens, LNCaP-Clone-FGC | KP-N-YS; Homo sapiens, KP-N-YS | KE-37; Homo sapiens, KE-37 | NOMO-1; Homo sapiens, NOMO-1 | KNS-81-FD; Homo sapiens, KNS-81-FD | EW-16; Homo sapiens, EW-16 | CCRF-CEM; Homo sapiens, CCRF-CEM | KALS-1; [1] | MZ1-PC; Homo sapiens, MZ1-PC | LU-134-A; Homo sapiens, LU-134-A | LB831-BLC; Homo sapiens, LB831-BLC | RKO; Homo sapiens, RKO | CAS-1; Homo sapiens, CAS-1 | LC-2-ad; Homo sapiens, LC-2-ad | LAN-6; Homo sapiens, LAN-6 | ACN; Homo sapiens, ACN | EW-13; [2] | C8166; Homo sapiens, C8166 | RH-1; Homo sapiens, RH-1 | SHP77; Homo sapiens, SHP77 | HOP-62; Homo sapiens, HOP-62 | Becker; Homo sapiens, Becker | TE-5; Homo sapiens, TE-5
1.38 µM: LAMA-84; Homo sapiens, LAMA-84
1.96 µM: MOLT-16; Homo sapiens, MOLT-16
1.41 µM: KARPAS-299; Homo sapiens, KARPAS-299

Cc1ccc(NC(=O)c2ccc(CN3CCN(C)CC3)cc2)cc1Nc1nccc(-c2cccnc2)n1 [IMATINIB]
0.073 µM: LAMA-84; Homo sapiens, LAMA-84
> 2 µM: ML-2; Homo sapiens, ML-2 | SK-N-FI; Homo sapiens, SK-N-FI | ES4; Homo sapiens, ES4 | MSTO-211H; Homo sapiens, MSTO-211H | U-87 MG; Homo sapiens, U-87 MG | SNU1; Homo sapiens, SNU1 | NCI-H1395; Homo sapiens, NCI-H1395 | LB771-HNC | ONS-76; Homo sapiens, ONS-76 | NCI-H747; Homo sapiens, NCI-H747 | LS-513; Homo sapiens, LS-513 | HCC2157; Homo sapiens, HCC2157 | IST-MEL1; Homo sapiens, IST-MEL1 | NCI-H209; Homo sapiens, NCI-H209 | AM-38; Homo sapiens, AM-38 | LB996-RCC; Homo sapiens, LB996-RCC | RPMI-8866; Homo sapiens, RPMI-8866 | BB30-HNC; Homo sapiens, BB30-HNC | A101D; Homo sapiens, A101D | JVM-3; Homo sapiens, JVM-3 | ES1; Homo sapiens, ES1 | KARPAS-299; Homo sapiens, KARPAS-299 | KP-N-YS; Homo sapiens, KP-N-YS | KE-37; Homo sapiens, KE-37 | NOMO-1; Homo sapiens, NOMO-1 | KNS-81-FD; Homo sapiens, KNS-81-FD | EW-16; Homo sapiens, EW-16 | CCRF-CEM; Homo sapiens, CCRF-CEM | KALS-1; Homo sapiens, KALS-1 | MZ1-PC; Homo sapiens, MZ1-PC | LU-134-A; Homo sapiens, LU-134-A | LB831-BLC; Homo sapiens, LB831-BLC | RKO; Homo sapiens, RKO | MOLT-16; Homo sapiens, MOLT-16 | CAS-1; Homo sapiens, CAS-1 | LC-2-ad; Homo sapiens, LC-2-ad | LAN-6; Homo sapiens, LAN-6 | ACN; Homo sapiens, ACN | EW-13; Homo sapiens, EW-13 | C8166; Homo sapiens, C8166 | RH-1; Homo sapiens, RH-1 | SHP77; Homo sapiens, SHP77 | HOP-62; Homo sapiens, HOP-62 | Becker; Homo sapiens, Becker | TE-5; Homo sapiens, TE-5

CC(C)C[C@@H](C=O)NC(=O)[C@H](CC(C)C)NC(=O)[C@H](CC(C)C)NC(=O)OCc1ccccc1 [MG-132] (Cbz-Leu-Leu-Leu-aldehyde)
0.133 µM and 0.639 µM: KE-37; ke-37
0.295 µM and > 1 µM: MOLT-16; molt-16
0.313 µM and > 1 µM: LAN-6; lan-6
0.466 µM and > 1 µM: KALS-1; kals-1, read-out: IC50
0.713 µM: NCI-H747; nci-h747
0.796 µM and > 1 µM: Becker; becker
0.0328 µM and 0.301 µM: A101D; a101d
0.477 µM and > 1 µM: CCRF-CEM; ccrf-cem
0.219 µM and > 1 µM: LAMA-84; lama-84
0.303 µM and > 1 µM: KNS-81-FD; kns-81-fd
0.155 µM and > 1 µM: CAS-1; cas-1
0.129 µM and 0.899 µM: ONS-76; ons-76
0.371 µM: NCI-H747; Homo sapiens, NCI-H747
0.109 µM and > 1 µM: HOP-62; hop-62
0.668 µM and > 1 µM: LS-513; ls-513
0.193 µM and 0.476 µM: LB831-BLC; lb831-blc
> 1 µM and 0.932 µM: RKO; rko
0.118 µM and 0.473 µM: ML-2; ml-2
0.143 µM and > 1 µM: TE-5; te-5
0.226 µM and > 1 µM: ACN; acn
> 1 µM: SK-N-FI; sk-n-fi | ES4; es4 | MSTO-211H; msto-211h | U-87 MG; Homo sapiens, U-87 MG | U-87 MG; u-87mg atcc | SNU1; snu1 | NCI-H1395; Homo sapiens, NCI-H1395 | NCI-H1395; nci-h1395 | HCC2157; hcc2157 | IST-MEL1; ist-mel1 | NCI-H209; nci-h209 | SCH | AM-38; am-38 | LB996-RCC; lb996-rcc | RPMI-8866; Homo sapiens, RPMI-8866 | RPMI-8866; rpmi-8866 | BB30-HNC; bb30-hnc | JVM-3; jvm-3 | ES1; es1 | KARPAS-299; karpas-299 | LNCaP-Clone-FGC; Homo sapiens, LNCaP-Clone-FGC | LNCaP-Clone-FGC; lncap-clone-fgc | KP-N-YS; kp-n-ys | NOMO-1; Homo sapiens, NOMO-1 | NOMO-1; nomo-1 | EW-16; ew-16 | MZ1-PC; Homo sapiens, MZ1-PC | MZ1-PC; mz1-pc | LU-134-A; Homo sapiens, LU-134-A | LU-134-A; lu-134-a | LC-2-ad; Homo sapiens, LC-2-ad | LC-2-ad; lc-2-ad | EW-13; [2] | EW-13; ew-13, read-out: IC50 | C8166; c8166 | RH-1; rh-1 | SHP77; shp-77

COc1cc(N2CCC(N3CCN(C)CC3)CC2)ccc1Nc1ncc(Cl)c(Nc2ccccc2S(=O)(=O)C(C)C)n1 [TAE-684]
0.55 µM: LB831-BLC; Homo sapiens, LB831-BLC
1.5 µM: RKO; Homo sapiens, RKO
0.491 µM: ES4; Homo sapiens, ES4
1.34 µM: KALS-1; [1]
1.98 µM: CAS-1; Homo sapiens, CAS-1
0.839 µM: LU-134-A; Homo sapiens, LU-134-A
1.57 µM: A101D; Homo sapiens, A101D
0.499 µM: NCI-H747; Homo sapiens, NCI-H747
0.898 µM: LB771-HNC
1.47 µM: HCC2157; Homo sapiens, HCC2157
0.178 µM: MZ1-PC; Homo sapiens, MZ1-PC
0.174 µM: LAN-6; Homo sapiens, LAN-6
0.65 µM: HOP-62; Homo sapiens, HOP-62
0.49 µM: ML-2; Homo sapiens, ML-2
> 2 µM: SK-N-FI; Homo sapiens, SK-N-FI | MSTO-211H; Homo sapiens, MSTO-211H | U-87 MG; Homo sapiens, U-87 MG | SNU1; Homo sapiens, SNU1 | NCI-H1395; Homo sapiens, NCI-H1395 | ONS-76; Homo sapiens, ONS-76 | LAMA-84; Homo sapiens, LAMA-84 | LS-513; Homo sapiens, LS-513 | IST-MEL1; Homo sapiens, IST-MEL1 | NCI-H209; Homo sapiens, NCI-H209 | AM-38; Homo sapiens, AM-38 | RPMI-8866; Homo sapiens, RPMI-8866 | JVM-3; Homo sapiens, JVM-3 | ES1; Homo sapiens, ES1 | LNCaP-Clone-FGC; Homo sapiens, LNCaP-Clone-FGC | KP-N-YS; Homo sapiens, KP-N-YS | KE-37; Homo sapiens, KE-37 | NOMO-1; Homo sapiens, NOMO-1 | KNS-81-FD; Homo sapiens, KNS-81-FD | CCRF-CEM; Homo sapiens, CCRF-CEM | ACN; Homo sapiens, ACN | EW-13; [2] | C8166; Homo sapiens, C8166 | RH-1; Homo sapiens, RH-1 | SHP77; Homo sapiens, SHP77 | Becker; Homo sapiens, Becker | TE-5; Homo sapiens, TE-5
0.106 µM: EW-16; Homo sapiens, EW-16
0.694 µM: LB996-RCC; Homo sapiens, LB996-RCC
0.876 µM: MOLT-16; Homo sapiens, MOLT-16
0.0238 µM: KARPAS-299; Homo sapiens, KARPAS-299
0.197 µM: LC-2-ad; Homo sapiens, LC-2-ad
1.13 µM: BB30-HNC; Homo sapiens, BB30-HNC
